Assay results reported in publication PMC10997755, “Discovery of a small-molecule inhibitor that traps Polθ on DNA and synergizes with PARP inhibitors” (Nature Communications, 2024).
Where two headings read alike, the source gives them in different places. One block for each molecule: values may come before it.

Experiments:
[1] = system: DLD1 Parental cells; experiment: Clonogenic assay; type: cell-based; conditions: DLD1 Parental
Method: (§1) Cells were plated on six or twelve or twenty-four well plates. In six well plate, 1000 cells/ well of BRCA2 -/-, BRCA1 -/-, PALB2 mut and 500 cells/ well of wildtype pair was plated; In twelve well plate, 600 cells/ well of BRCA2 -/-, BRCA1 -/-, PALB2 mut and 400 cells/ well of wildtype pair was plated; In twenty-four well plate, 500 cells/ well of BRCA2 -/-, BRCA1 -/-, PALB2 mut and 300 cells/ well of wildtype pair was plated. For MEFs, 300 cells per well in six-well plate were seeded. The medium was replaced every 2 days until the colonies were ready for staining in 10–12 days. For staining: Medium was removed from plates, and cells were rinsed with PBS. Fixation was carried out with—Water: Ethanol: Acetic acid (5:4:1) for 30 min followed by staining of colonies with 0.5% crystal violet in Water: Ethanol (3:2) for 2 h at room temperature. The plates were rinsed with water and left for drying overnight at room temperature. Colonies were then counted and IC50 was calculated using results from 3 or more independent experiments. Response curves are shown as mean colony formation +/- S.E.M.

[2] = biological target: T1, Polθ-pol (Homo sapiens, UniProt O75417); experiment: Cy5 fluorescence Polθ-pol DNA synthesis (strand displacement) IC50 assay; type: biochemical; conditions: Polθ-pol DNA synthesis, Cy5 fluorescence
T1 construct: purified recombinant human Polθ-pol (comprising amino acid residues 1792–2590); made in house
T1 sequence (O75417 1792-2590): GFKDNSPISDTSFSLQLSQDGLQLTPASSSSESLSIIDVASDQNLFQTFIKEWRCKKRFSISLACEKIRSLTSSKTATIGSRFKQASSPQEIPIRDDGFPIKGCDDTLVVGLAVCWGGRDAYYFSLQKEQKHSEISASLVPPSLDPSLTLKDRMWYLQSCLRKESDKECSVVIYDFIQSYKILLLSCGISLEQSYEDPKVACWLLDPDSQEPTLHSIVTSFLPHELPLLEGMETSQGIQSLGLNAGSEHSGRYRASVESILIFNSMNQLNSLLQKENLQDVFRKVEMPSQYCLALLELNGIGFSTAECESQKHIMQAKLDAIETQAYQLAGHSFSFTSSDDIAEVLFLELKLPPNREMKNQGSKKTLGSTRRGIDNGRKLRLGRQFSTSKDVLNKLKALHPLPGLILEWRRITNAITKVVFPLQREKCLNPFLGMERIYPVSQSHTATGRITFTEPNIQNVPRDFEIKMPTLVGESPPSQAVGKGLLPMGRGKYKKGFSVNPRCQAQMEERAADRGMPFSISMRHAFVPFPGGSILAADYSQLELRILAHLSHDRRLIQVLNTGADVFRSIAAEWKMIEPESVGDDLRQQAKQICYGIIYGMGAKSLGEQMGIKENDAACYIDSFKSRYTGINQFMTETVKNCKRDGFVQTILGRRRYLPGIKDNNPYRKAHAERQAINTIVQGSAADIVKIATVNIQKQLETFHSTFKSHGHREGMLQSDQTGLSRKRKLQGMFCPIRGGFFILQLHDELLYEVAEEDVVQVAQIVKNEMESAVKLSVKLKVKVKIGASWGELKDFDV
Method: The following Cy5 fluorescence assay was used to measure the ability of compounds to inhibit Polθ-pol in vitro. The fluorescent based assay was performed as follows: 60 nM of the pre-annealed primer-template containing a 5’ Cy5 fluorophore conjugated template strand (RP486-Cy5), a downstream complementary oligo conjugated with a 3’ Iowa BlackReg Dark quencher (RP343BHQRQ) and a primer strand (RP469D) was mixed with 50 uM 2'-deoxyribonucleoside triphosphates (dNTPs), 0.1 mg/mL Bovine serum albumin (BSA), 0.01% NP-40, 10% glycerol, 1 mM dithiothreitol (DTT), 10 mM MgCl2, 25 mM TrisHCl pH 7.8 in the presence of 2.5% DMSO with or without various concentrations (7-point dilution series) of Polθ-pol small-molecule inhibitors at 37 °C in a volume of 40 μL. The reactions were initiated by the addition of 5 nM of purified recombinant human Polθ-pol (comprising amino acid residues 1792–2590). The reactions were terminated by the addition of 20 mM EDTA after 18 min, and the Cy5 fluorescence intensity was measured using a CLARIOstar (BMG Labtech) plate reader. Reactions were performed in triplicate and the % inhibition at each concentration of the respective compound of Formula I was based on the mean.

[3] = system: DLD1 BRCA2 -/- cells; experiment: Clonogenic assay; type: cell-based; conditions: for Average (colonies): DLD1 BRCA2 -/-; for IC50: DLD1 cells, label beside BRCA2-null curve, read-out: IC50 clonogenic survival; for potency in BRCA2-null cells compared with RTx-161: clonogenic survival
Method: as §1
Data are expressed as mean ± SEM from at least 3 independent experiments with triplicates for each condition unless stated otherwise. When conducting comparison between two groups, two-tailed unpaired t-test was used. Significance was assumed at p < 0.05. Asterisks in the figures indicate significance, ^∗p < 0.05, ^∗∗p < 0.01, ^∗∗∗p < 0.001. Combenefit® software version 2.021 was used to perform synergy analyses for drug combinations between RTx-161 and PARPi. GraphPad Prism 9 software was used to calculate IC50.

- IC50 [2]: 11.4 nM
SMILES: Cc1cccc(N(C)C(=O)[C@@H]2[C@H](O)CCN2c2nc(C)cc(C(F)(F)F)c2C#N)c1 [ART558, reference compound]
- Average (colonies) ([1]; 0.1875 uM, block 1 of sheet): 47.5
- Average (colonies) ([1]; 0.1875 uM, block 2 of sheet): 42
- Average (colonies) ([1]; 0.1875 uM, block 3 of sheet): 77
- Average (colonies) ([1]; 0.375 uM, block 1 of sheet): 51
- Average (colonies) ([1]; 0.375 uM, block 2 of sheet): 61
- Average (colonies) ([1]; 0.375 uM, block 3 of sheet): 80
- Average (colonies) ([1]; 0.75 uM, block 1 of sheet): 39.5
- Average (colonies) ([1]; 0.75 uM, block 2 of sheet): 41.5
- Average (colonies) ([1]; 0.75 uM, block 3 of sheet): 76.5
- Average (colonies) ([1]; 1.5 uM, block 1 of sheet): 42.5
- Average (colonies) ([1]; 1.5 uM, block 2 of sheet): 44.5
- Average (colonies) ([1]; 1.5 uM, block 3 of sheet): 77.5
- Average (colonies) ([1]; 3 uM, block 1 of sheet): 58.5
- Average (colonies) ([1]; 3 uM, block 2 of sheet): 36.5
- Average (colonies) ([1]; 3 uM, block 3 of sheet): 78.5
- Average (colonies) ([1]; 6 uM, block 1 of sheet): 42.5
- Average (colonies) ([1]; 6 uM, block 2 of sheet): 59
- Average (colonies) ([1]; 6 uM, block 3 of sheet): 76.5
- Average (colonies) ([1]; 12 uM, block 2 of sheet): 57.5
- Average (colonies) ([1]; 12 uM, block 3 of sheet): 79
- Average (colonies) ([3]; 0.1875 uM, block 1 of sheet): 21.5
- Average (colonies) ([3]; 0.1875 uM, block 2 of sheet): 41.5
- Average (colonies) ([3]; 0.1875 uM, block 3 of sheet): 18
- Average (colonies) ([3]; 0.375 uM, block 1 of sheet): 24.5
- Average (colonies) ([3]; 0.375 uM, block 2 of sheet): 37.5
- Average (colonies) ([3]; 0.375 uM, block 3 of sheet): 18.5
- Average (colonies) ([3]; 0.75 uM, block 1 of sheet): 10.5
- Average (colonies) ([3]; 0.75 uM, block 2 of sheet): 31
- Average (colonies) ([3]; 0.75 uM, block 3 of sheet): 18.5
- Average (colonies) ([3]; 1.5 uM, block 1 of sheet): 15.5
- Average (colonies) ([3]; 1.5 uM, block 2 of sheet): 30.5
- Average (colonies) ([3]; 1.5 uM, block 3 of sheet): 20.5
- Average (colonies) ([3]; 3 uM, block 1 of sheet): 14
- Average (colonies) ([3]; 3 uM, block 2 of sheet): 22.5
- Average (colonies) ([3]; 3 uM, block 3 of sheet): 15
- Average (colonies) ([3]; 6 uM, block 1 of sheet): 6.5
- Average (colonies) ([3]; 6 uM, block 2 of sheet): 28.5
- Average (colonies) ([3]; 6 uM, block 3 of sheet): 8
- Average (colonies) ([3]; 12 uM, block 2 of sheet): 11.5
- Average (colonies) ([3]; 12 uM, block 3 of sheet): 6
- IC50 ([3]; Homo sapiens, DLD-1): ~2.5 µM
- potency in BRCA2-null cells compared with RTx-161 [3]: slightly reduced potency

- IC50 [2]: 6.9 nM
SMILES: Nc1ccc(C#CCN(C(=O)Cc2ncc(C(F)(F)F)cc2C(F)(F)F)c2ccc(F)cc2)nn1 [RP6685, reference compound]
- Average (colonies) ([1]; 0.375 uM, block 1 of sheet): 72.6667
- Average (colonies) ([1]; 0.375 uM, block 2 of sheet): 75
- Average (colonies) ([1]; 0.375 uM, block 3 of sheet): 87
- Average (colonies) ([1]; 0.375 uM, block 4 of sheet): 63.6667
- Average (colonies) ([1]; 0.75 uM, block 1 of sheet): 55.3333
- Average (colonies) ([1]; 0.75 uM, block 2 of sheet): 76
- Average (colonies) ([1]; 0.75 uM, block 3 of sheet): 85.6667
- Average (colonies) ([1]; 0.75 uM, block 4 of sheet): 65.6667
- Average (colonies) ([1]; 1.5 uM, block 1 of sheet): 59.3333
- Average (colonies) ([1]; 1.5 uM, block 2 of sheet): 75
- Average (colonies) ([1]; 1.5 uM, block 3 of sheet): 80
- Average (colonies) ([1]; 1.5 uM, block 4 of sheet): 63.3333
- Average (colonies) ([1]; 3 uM, block 1 of sheet): 73
- Average (colonies) ([1]; 3 uM, block 2 of sheet): 75.6667
- Average (colonies) ([1]; 3 uM, block 3 of sheet): 85.6667
- Average (colonies) ([1]; 3 uM, block 4 of sheet): 65.6667
- Average (colonies) ([1]; 6 uM, block 1 of sheet): 74
- Average (colonies) ([1]; 6 uM, block 2 of sheet): 74.3333
- Average (colonies) ([1]; 6 uM, block 3 of sheet): 84
- Average (colonies) ([1]; 6 uM, block 4 of sheet): 64
- Average (colonies) ([1]; 12 uM, block 1 of sheet): 60.6667
- Average (colonies) ([1]; 12 uM, block 2 of sheet): 75
- Average (colonies) ([1]; 12 uM, block 3 of sheet): 81
- Average (colonies) ([1]; 12 uM, block 4 of sheet): 64.3333
- Average (colonies) ([3]; 0.375 uM, block 1 of sheet): 44.6667
- Average (colonies) ([3]; 0.375 uM, block 2 of sheet): 14.6667
- Average (colonies) ([3]; 0.375 uM, block 3 of sheet): 52
- Average (colonies) ([3]; 0.375 uM, block 4 of sheet): 52
- Average (colonies) ([3]; 0.75 uM, block 1 of sheet): 42.3333
- Average (colonies) ([3]; 0.75 uM, block 2 of sheet): 10.3333
- Average (colonies) ([3]; 0.75 uM, block 3 of sheet): 48.3333
- Average (colonies) ([3]; 0.75 uM, block 4 of sheet): 49.6667
- Average (colonies) ([3]; 1.5 uM, block 1 of sheet): 34
- Average (colonies) ([3]; 1.5 uM, block 2 of sheet): 7.333
- Average (colonies) ([3]; 1.5 uM, block 3 of sheet): 43.6667
- Average (colonies) ([3]; 1.5 uM, block 4 of sheet): 41.6667
- Average (colonies) ([3]; 3 uM, block 1 of sheet): 34.3333
- Average (colonies) ([3]; 3 uM, block 2 of sheet): 4
- Average (colonies) ([3]; 3 uM, block 3 of sheet): 33.6667
- Average (colonies) ([3]; 3 uM, block 4 of sheet): 36.3333
- Average (colonies) ([3]; 6 uM, block 1 of sheet): 30
- Average (colonies) ([3]; 6 uM, block 2 of sheet): 4
- Average (colonies) ([3]; 6 uM, block 3 of sheet): 31
- Average (colonies) ([3]; 6 uM, block 4 of sheet): 28
- Average (colonies) ([3]; 12 uM, block 1 of sheet): 25
- Average (colonies) ([3]; 12 uM, block 2 of sheet): 2
- Average (colonies) ([3]; 12 uM, block 3 of sheet): 21.3333
- Average (colonies) ([3]; 12 uM, block 4 of sheet): 9.333
- IC50 [3]: ~4.5 µM
- potency in BRCA2-null cells compared with RTx-161 [3]: slightly reduced potency
